From patent US10214508B2, “Nitrogen-containing heterocyclic compound” (Takeda Pharmaceutical Company Limited, priority 2014, dated 2019)

molecular target: T1, human M1 receptor (hCHRM1) (Homo sapiens, UniProt P11229); experiment: Measurement of M1 receptor positive allosteric modulator (M1PAM) activity, calcium fluorescence (FLIPRtetra); assay type: cell-based; conditions: 10 μM test compound with acetylcholine at EC20 (final 0.6-0.8 nM); 100% = acetylcholine 1 μM, 0% = DMSO; CHO-K1 cells expressing hCHRM1
T1 construct: expressed in transfected cells
T1 sequence (P11229 1-460): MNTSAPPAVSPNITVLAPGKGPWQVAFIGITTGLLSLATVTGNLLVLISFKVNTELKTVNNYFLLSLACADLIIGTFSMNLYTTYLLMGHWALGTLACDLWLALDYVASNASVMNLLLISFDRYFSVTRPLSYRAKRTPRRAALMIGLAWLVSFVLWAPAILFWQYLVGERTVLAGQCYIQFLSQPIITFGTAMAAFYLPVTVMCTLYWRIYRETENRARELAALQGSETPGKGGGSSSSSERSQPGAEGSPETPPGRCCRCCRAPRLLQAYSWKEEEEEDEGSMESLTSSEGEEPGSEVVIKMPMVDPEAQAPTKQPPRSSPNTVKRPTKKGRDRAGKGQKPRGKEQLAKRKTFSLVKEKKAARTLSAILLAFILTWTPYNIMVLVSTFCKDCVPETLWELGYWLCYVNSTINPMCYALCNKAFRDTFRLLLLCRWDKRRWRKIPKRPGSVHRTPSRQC
Method: Measurement of M1 Receptor Positive Allosteric Modulator (M1PAM) Activity
The activity of a test compound in the presence of acetylcholine at EC20 concentration (final concentration 0.6-0.8 nM), which affords an action corresponding to about 20% of the maximum activity, was measured as PAM activity. The method is as follows. CHO-K1 cells stably expressing a human M1 receptor (hCHRM1) were plated on a 384-well black clear bottom plate (BD Falcon) at 5,000 cells/well, and cultured in an incubator at 37° C., 5% CO2 for 1 day. The medium in the cell plate was removed, and assay buffer A containing calcium indicator (Recording medium (DOJINDO LABORATORIES), 0.1% BSA (Wako Pure Chemical Industries, Ltd.), 2.5 μg/mL Fluo-4 AM (DOJINDO LABORATORIES), 0.08% Pluronic F127 (DOJINDO LABORATORIES), 1.25 mM probenecid (DOJINDO LABORATORIES)) was added at 30 μL/well. The cells were left standing in the incubator at 37° C., 5% CO2 for 30 min, and further left standing at room temperature for 30 min. A test compound prepared by diluting with assay buffer B (HBSS (Invitrogen), 20 mM HEPES (Invitrogen), 0.1% BSA) containing 2.4-3.2 nM acetylcholine was added at 10 μL/well, and the fluorescence was measured by FLIPRtetra (Molecular Devices) for 1 min every for 1 second. With the definition that the amount of change in the fluorescence on addition of acetylcholine (final concentration 1 μM) is 100% and that on addition of DMSO instead of a test compound is 0%, the activity (%) of the test compound was calculated, and the inflection point in the concentration-dependent curve of the test compound was calculated as IP values.

Structure (SMILES)	activity (%) at 10 μM [%]
CCc1cnc(C(=O)N[C@H]2CCCC[C@@H]2O)cc1Cc1ccc(-n2cccn2)cc1 [Example 43, 5-ethyl-N-((1S,2S)-2-hydroxycyclohexyl)-4-(4-(1H-pyrazol-1-yl)benzyl)pyridine-2-carboxamide]	92
Cc1nc(C(=O)N[C@H]2CCCC[C@@H]2O)cc(Cc2ccc(C#N)nc2)c1Cl [Example 104, 5-chloro-4-((6-cyanopyridin-3-yl)methyl)-N-((1S,2S)-2-hydroxycyclohexyl)-6-methylpyridine-2-carboxamide]	102
Cc1nc(C(=O)N[C@H]2CCC[C@@H]2O)cc(Cc2ccc(-n3cccn3)cc2)c1C [Example 75, N-((1S,2S)-2-hydroxycyclopentyl)-5,6-dimethyl-4-(4-(1H-pyrazol-1-yl)benzyl)pyridine-2-carboxamide]	102
Cc1nc(C(=O)N[C@H]2CCCC[C@@H]2O)cc(Cc2ccc(C#N)cc2)c1Cl [Example 66, 5-chloro-4-(4-cyanobenzyl)-N-((1S,2S)-2-hydroxycyclohexyl)-6-methylpyridine-2-carboxamide]	105
Cc1nc(C(=O)N[C@H]2COCC[C@@H]2O)cc(Cc2ccc(-c3ccn(C)n3)cc2)c1Cl [Example 96, 1,5-anhydro-2-(((5-chloro-6-methyl-4-(4-(1-methyl-1H-pyrazol-3-yl)benzyl)pyridin-2-yl)carbonyl)amino)-2,4-dideoxy-L-threo-pentitol]	112
Cc1nc(C(=O)N[C@H]2CCCC[C@@H]2O)cc(Cc2ccc(-c3cnn(C)c3)nc2)c1C [Example 80, N-((1S,2S)-2-hydroxycyclohexyl)-5,6-dimethyl-4-((6-(1-methyl-1H-pyrazol-4-yl)pyridin-3-yl)methyl)pyridine-2-carboxamide]	84
COc1ccc(Cc2cc(C(=O)N[C@H]3COCC[C@@H]3O)nc(C)c2Cl)cc1 [Example 102, 1,5-anhydro-2-(((5-chloro-4-(4-methoxybenzyl)-6-methylpyridin-2-yl)carbonyl)amino)-2,4-dideoxy-L-threo-pentitol]	104
Cc1nc(C(=O)N[C@H]2COCC[C@@H]2O)cc(Cc2ccc(-c3ccn(C)n3)cc2)c1C#N [Example 115, 1,5-anhydro-2-(((5-cyano-6-methyl-4-(4-(1-methyl-1H-pyrazol-3-yl)benzyl)pyridin-2-yl)carbonyl)amino)-2,4-dideoxy-L-threo-pentitol]	111
COc1cnc(C(=O)N[C@H]2CCCC[C@@H]2O)cc1Cc1ccc(Cl)nc1 [Example 61, 4-((6-chloropyridin-3-yl)methyl)-N-((1S,2S)-2-hydroxycyclohexyl)-5-methoxypyridine-2-carboxamide]	108
COc1cnc(C(=O)N[C@H]2CCCC[C@@H]2O)cc1Cc1ccc(-c2cnn(C)c2)nc1 (relative stereo) [Example 58, N-(trans-2-hydroxycyclohexyl)-5-methoxy-4-((6-(1-methyl-1H-pyrazol-4-yl)pyridin-3-yl)methyl)pyridine-2-carboxamide]	89
Cc1nn(C)cc1-c1ccc(Cc2cc(C(=O)N[C@H]3CCCC[C@@H]3O)nc(C)c2Cl)cn1 [Example 109, 5-chloro-4-((6-(1,3-dimethyl-1H-pyrazol-4-yl)pyridin-3-yl)methyl)-N-((1S,2S)-2-hydroxycyclohexyl)-6-methylpyridine-2-carboxamide]	95
COc1cc(Cc2ccc(-n3cccn3)cc2)cc(C(=O)N[C@H]2CCCC[C@@H]2O)n1 [Example 69, N-((1S,2S)-2-hydroxycyclohexyl)-6-methoxy-4-(4-(1H-pyrazol-1-yl)benzyl)pyridine-2-carboxamide]	100
Cc1nc(C(=O)N[C@H]2CCCC[C@@H]2O)cc(Cc2ccc(-c3ccn(C)n3)nc2)c1Cl [Example 107, 5-chloro-N-((1S,2S)-2-hydroxycyclohexyl)-6-methyl-4-((6-(1-methyl-1H-pyrazol-3-yl)pyridin-3-yl)methyl)pyridine-2-carboxamide]	101
